Assay results: patent US20230242663A1, “COMBINATION THERAPY COMPRISING ANTI-CD137 ANTIBODIES” (Adagene PTE. LTD., priority 2020, published 2023)

Columns and labels:
[1] = test system: A20 B cell lymphoma cells; type: in vivo, BALB/c mice; conditions: ADG106 5 mg/kg twice a week for 4 doses; Bendamustine 12.5 mg/kg once a day for 4 doses; intraperitoneal
Method: BALB/c mice (n=8 per group, female, 6-8 weeks old) were transplanted subcutaneously with 5×10^5 A20 B cell lymphoma cells. After tumors were established (i.e., having reached a volume of 100 mm^3), mice were treated with vehicle, ADG106 (5 mg/kg, twice a week for 4 doses by intraperitoneal injection), Bendamustine (12.5 mg/kg, once a day for 4 doses by intraperitoneal injection), or ADG106 (5 mg/kg, twice a week for 4 doses by intraperitoneal injection) in combination with Bendamustine (12.5 mg/kg, once a day for 4 doses by intraperitoneal injection). Tumor growth was monitored twice weekly and reported as mean tumor volume±SEM over time.

[2] = test system: human T lymphocytes; conditions: Kim K. et al., Immunology 2002; cited from earlier work
[3] = test system: SU-DHL1 human TCL cells; assay: mRNA expression, QuantiGene Plex assay, SU-DHL1; type: cell-based; conditions: for regulation of CD137L mRNA expression, SU-DHL1 mRNA: summary Table 3; as to regulation of CD137L mRNA expression, SU-DHL1 mRNA: key: 'Y' indicates the treatment caused upregulation; 'N' indicates the treatment did not cause upregulation
Method: (§1) HUT102, HUT78, and SU-DHL1 cells, cultured in 96-well plates, were treated with a dose range of Romidepsin (0-0.1 μM), Bortezomib (0-1.0 μM), Belinostat (0-10.0 μM), or Vincristine (0-0.03 μM) for 24 hours. Cells were lysed with Lysis Buffer and cell lysates were used for the QuantiGene Plex assay (7-gene multiplex (CD80, CD86, CD274, CD137, CD137L, HPRT1, GAPDH))

[4] = test system: HUT102 human TCL cells; assay: mRNA expression, QuantiGene Plex assay, HUT102; type: cell-based; conditions: for regulation of CD137L mRNA expression, HUT102 mRNA: summary Table 3; for CD137L mRNA expression / CD137 mRNA expression / CD274 mRNA expression: HUT102 cells, dose range, 24 hours; as to regulation of CD137L mRNA expression, HUT102 mRNA: key: 'Y' indicates the treatment caused upregulation; 'N' indicates the treatment did not cause upregulation
Method: as §1

[5] = test system: HUT78 human TCL cells; assay: mRNA expression, QuantiGene Plex assay, HUT78; type: cell-based; conditions: for regulation of CD137L mRNA expression, HUT78 mRNA: summary Table 3; for CD137L mRNA expression: HUT78 cells, dose range, 24 hours; as to regulation of CD137L mRNA expression, HUT78 mRNA: key: 'Y' indicates the treatment caused upregulation; 'N' indicates the treatment did not cause upregulation
Method: as §1

[6] = test system: HUT78 human TCL cells; assay: Dose-dependent effects on CD137L protein surface expression (flow cytometry); type: cell-based; conditions: for regulation of CD137L protein surface expression, HUT78 Protein: summary Table 3; for CD137L protein surface expression: HUT78 cells, dose range, 24 hours; as to regulation of CD137L protein surface expression, HUT78 Protein: key: 'Y' indicates the treatment caused upregulation; 'N' indicates the treatment did not cause upregulation
Method: HUT78 cells, cultured in 6-well plates in RPMI-1640 medium containing 20% fetal bovine serum (FBS), were treated with a dose range of Romidepsin (0-0.1 μM), Bortezomib (0-1.0 μM), Belinostat (0-1.0 μM), Chidamide (0-3.0 μM), or Vincristine (0-0.03 μM) for 24 hours. Cells (1×10^5) were washed twice in Dulbecco's Phosphate Buffered Saline (DPBS), stained with either Phycoerythrin (PE)-conjugated Isotype Control (Biolegend catalog #400112) and anti-human-CD137L (Biolegend catalog #311504) antibodies (1 μL antibody in 100 μL DPBS, FIG. 5A-5E) or PE-Cy7-conjugated Isotype Control (Thermofisher catalog #25-4714-80) and anti-human-CD137L (Thermofisher catalog #25-5906-42) antibodies (1 μL antibody in 100 μL DPBS, FIG. 5F-5H) at 4° C. for 30 minutes, washed twice in DPBS, and resuspended in 100 μL DPBS for flow cytometry analysis.

[7] = test system: HUT78 human TCL cells; assay: Cell viability of HUT78 cells (CellTiter-Glo); type: cell-based; conditions: dose range, 24 hours
Method: (§2) HUT78 cells, cultured in 96-well plates in RPMI-1640 medium containing 20% fetal bovine serum (FBS), were treated with a dose range of Romidepsin (0-0.1 μM), Bortezomib (0-1.0 μM), or Chidamide (0-3.0 μM) for 24 hours. The CellTiter-Glo assay (Promega) was used to assess cell viability according to the manufacturer's instructions.

[8] = test system: HUT78 human TCL cells; assay: Time-dependent effects on CD137L protein surface expression (flow cytometry); type: cell-based; conditions: 0.003 μM Romidepsin or 0.01 μM Bortezomib, 2, 6, 16 or 24 hours
Method: HUT78 cells, cultured in 6-well plates in RPMI-1640 medium containing 20% FBS, were treated with 0.003 μM Romidepsin or 0.01 μM Bortezonib for 2, 6, 16, or 24 hours. Cells (1×103) were washed twice in DPBS, stained with PE-conjugated Isotype Control (Biolegend catalog #400112) and anti-human-CD137L (Biolegend catalog #311504) antibodies (1 μL antibody in 100 μL DPBS) at 4° C. for 30 minutes, washed twice in DPBS, and resuspended in 100 μL DPBS for flow cytometry analysis.

[9] = test system: purified human T cells; assay: Cell viability of purified human T cells (CellTiter-Glo); type: cell-based; conditions: dose range, 24 hours
Method: as §2, with “T cells were purified from human PBMCs (>95% purity, data not shown),” for “HUT78 cells,”, “10%” for “20%”, “and” for “were”

[10] = SU-DHL1 cells, dose range, 24 hours

Compound | expression of CD137 in human T lymphocytes [2] | regulation of CD137L mRNA expression, SU-DHL1 mRNA [3] | CD137L mRNA expression [3, 10] | regulation of CD137L mRNA expression, HUT102 mRNA [4] | CD137L mRNA expression [4] | regulation of CD137L mRNA expression, HUT78 mRNA [5] | CD137L mRNA expression [5] | regulation of CD137L protein surface expression, HUT78 Protein [6] | CD137L protein surface expression [6] | further results
Cn1c(CCCC(=O)O)nc2cc(N(CCCl)CCCl)ccc21 [Bendamustine, bendamustine] | – | – | – | – | – | – | – | – | – | tolerability in mice as monotherapies [1]: well tolerated
COc1cccc2c1C(=O)c1c(O)c3c(c(O)c1C2=O)C[C@@](O)(C(=O)CO)C[C@@H]3O[C@H]1C[C@H](N)[C@H](O)[C@H](C)O1 [doxorubicin] | induce expression of CD137 | – | – | – | – | – | – | – | – | –
bleomycin | induce expression of CD137 | – | – | – | – | – | – | – | – | –
ADG106: anti-CD137 antibody; heavy chain SEQ ID NO: 10, light chain SEQ ID NO: 11; used as mouse IgG1 in Example 10 | – | – | – | – | – | – | – | – | – | tolerability in mice as monotherapies [1]: well tolerated
O=C(/C=C/c1cccc(S(=O)(=O)Nc2ccccc2)c1)NO [Belinostat, belinostat] | – | Y | dose-dependent upregulation | Y | dose-dependent upregulation | Y | dose-dependent upregulation | Y | dose-dependent upregulation | CD137 mRNA expression [3, 10]: induced; CD137 mRNA expression [4]: induced; CD274 mRNA expression [4]: induced
C/C=C1\NC(=O)[C@H]2CSSCC/C=C/[C@H](CC(=O)N[C@H](C(C)C)C(=O)N2)OC(=O)[C@H](C(C)C)NC1=O [Romidepsin, romidepsin] | – | Y | – | Y | – | Y | – | Y | – | –
CO[C@@]12[C@H](COC(N)=O)C3=C(C(=O)C(C)=C(N)C3=O)N1C[C@@H]1N[C@@H]12 [Mitomycin, mitomycin] | induce expression of CD137 | – | – | – | – | – | – | – | – | –
Nc1cc(F)ccc1NC(=O)c1ccc(CNC(=O)/C=C/c2cccnc2)cc1 [Chidamide, chidamide] | – | – | – | – | – | – | – | Y | – | –
CC(C)C[C@H](NC(=O)[C@H](Cc1ccccc1)NC(=O)c1cnccn1)B(O)O [Bortezomib, bortezomib] | – | Y | dose-dependent upregulation | Y | dose-dependent upregulation | N | not | Y | dose-dependent upregulation | cell viability of HUT78 human TCL cells [7]: inhibited cell viability; CD137L protein surface expression over time [8]: time-dependent upregulation; CD274 mRNA expression [4]: induced; viability of purified human T cells [9]: minimal or no effect
CC[C@]1(O)C[C@H]2CN(CCc3c([nH]c4ccccc34)[C@@](C(=O)OC)(c3cc4c(cc3OC)N(C=O)[C@H]3[C@@](O)(C(=O)OC)[C@H](OC(C)=O)[C@]5(CC)C=CCN6CC[C@]43[C@@H]65)C2)C1 [Vincristine, vincristine] | – | N | not | Y | induced upregulation | N | not | N | did not show upregulation | CD137 mRNA expression [4]: induced
